Data reported in PubChem BioAssay AID624285 (Broad Institute, 2012).
Active and inactive are the calls of the source.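 How the source made its calls: active means signal-decreasing dose-response curve whose fitted half-maximal concentration is at or below twice the highest valid tested dose; inconclusive means flat fit at 30 to 70% signal loss, or poor fit; inactive means the rest.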

System: not listed separately
Test: cell viability loss after compound exposure – 24 h, luminescence, cherry-picked samples, cytotoxicity control for PDI inhibitor project, dose response (AID 624285)
Conditions: NIH3T3/HeLa viability, CellTiter-Glo ATP luminescence, 24 h; at 35 µM (top of the series)

Row | Compound | activity change, negative = cytotoxicity
1 | CC1Cc2ccccc2N1C(=O)CSc1nnc2sc3ccccc3n12 (stereo unspecified) | -7.39% (inactive)
2 | CC(NC(=O)COC(=O)Cc1ccccc1[N+](=O)[O-])c1ccccc1 (stereo unspecified) | -0.036% (inactive)
3 | O=C(/C=C/c1ccc(NC(=O)c2ccccc2-c2ccccc2C(=O)O)cc1)c1ccccc1 | -8.34% (inactive)
4 | COc1cccc(NS(=O)(=O)c2ccc3c(c2)C2C=CCC2C(c2ccc(C(=O)O)cc2)N3)c1 (stereo unspecified) | -7.82% (inactive)
5 | CC(=O)OC[C@H]1O[C@@H](Oc2cc(O)cc3oc(-c4ccc(O)cc4)cc(=O)c23)[C@H](O[C@@H]2O[C@@H](C)[C@H](O)[C@@H](O)[C@H]2O)[C@@H](O)[C@@H]1O | -6.13% (inactive)
6 | CC(Cc1ccc(O)cc1)NCC(O)c1ccc(O)c(O)c1 (stereo unspecified) | -7.22% (inactive)
7 | CC1(C(=O)Nc2ccc3c(c2)OCCO3)CCN1C(=O)C1(c2ccc(Cl)cc2)CC1 (stereo unspecified) | -11.6% (inactive)
8 | O=C(NCc1ccccc1)c1cc(C2CCCN(C(=O)C3CCCCC3)C2)on1 (stereo unspecified) | -16.2% (inactive)
9 | C[C@@H]1CN([C@H](C)CO)C(=O)Cc2cc(NC(=O)Nc3ccccc3)ccc2O[C@H]1CN(C)Cc1ccccc1 | 1.49% (inactive)
10 | COc1cccc(/C=N/NC(=O)CNC(=O)C(c2ccccc2)c2ccccc2)c1O | -15.7% (inactive)
11 | Cc1nnc(N/N=C/c2ccc(-c3ccccc3F)o2)n1N | -8.41% (inactive)
12 | COC(=O)c1cccc(CSc2nnc(C)s2)c1 | -12.9% (inactive)
13 | Cc1c(-n2cc(C(=O)c3ccccc3O)cc(C#N)c2=O)c(=O)n(-c2ccccc2)n1C | -5.22% (inactive)
14 | O=C(Cc1ccccc1)Nc1cccc(C(=O)N/N=C/c2ccco2)c1 | -4.58% (inactive)
15 | CN(C)c1ccc(C2(O)C(=O)c3ccccc3C2=O)cc1 | -6.27% (inactive)
16 | O=C(CSc1n[nH]c(-c2ccccc2)n1)Nc1ccccc1O | -6.55% (inactive)
17 | COc1ccc(OC)c(CN2CCN(Cc3cc(=O)oc4cc(O)ccc34)CC2)c1 | -20.6% (inactive)
18 | Cn1c(=O)n(CCCOc2ccc(Br)cc2)c2ccccc21 | -15.3% (inactive)
19 | Cc1noc(C)c1S(=O)(=O)Nc1ccc2c(c1)CC(=O)N([C@H](C)CO)C[C@H](C)[C@@H](CN(C)S(=O)(=O)c1ccc(F)cc1)O2 | 4.98% (inactive)
20 | CC(Cc1ccccc1Sc1ccccc1O)N(C)C (stereo unspecified) | -11.9% (inactive)
21 | Cc1noc(C)c1S(=O)(=O)Nc1ccc2c(c1)CC(=O)N([C@H](C)CO)C[C@@H](C)[C@H](CN(C)S(=O)(=O)c1ccc(F)cc1)O2 | 4.61% (inactive)

Row | Compound | activity change, negative = cytotoxicity
22 | C[C@]12CC[C@@H]3c4ccc(O[C@@H]5O[C@H](C(=O)O)[C@@H](O)[C@H](O)[C@H]5O)cc4CC[C@H]3[C@@H]1C[C@@H](O)[C@@H]2O | -6.13% (inactive)
23 | CCOC(=O)C1(C)CCCN(C(=O)c2cccc(Cl)c2)C1 (stereo unspecified) | -5.27% (inactive)
24 | Cc1ccc(CN(c2ccc(C(=O)Nc3ccc4c(c3)OCO4)cc2)S(C)(=O)=O)cc1 | -9.66% (inactive)
25 | Cc1c(-n2cc(C(=O)c3cc(Br)ccc3O)cc(C#N)c2=O)c(=O)n(-c2ccccc2)n1C | -12.8% (inactive)
26 | CCOC(=O)C1(CC2CC2)CCN(Cc2cc(Cl)c(O)c(OC)c2)CC1 | -20.4% (inactive)
27 | CCCCn1c(SCC(=O)Nc2ccc(C)c(S(=O)(=O)N3CCOCC3)c2)nnc1C(CC)N(C)C (stereo unspecified) | 1.22% (inactive)
28 | O=c1c(OC2OC(CO)C(O)C(O)C2O)c(-c2ccc(O)c(O)c2)oc2cc(O)cc(O)c12 (stereo unspecified) | -0.384% (inactive)
29 | CC(C)Oc1cccc(C(=O)NC(=S)Nc2cccc(NC(=O)c3ccccc3Cl)c2)c1 | -18.2% (inactive)
30 | CC(NCC(O)COCc1ccc(Cl)cc1)c1ccccc1 (stereo unspecified) | -15.3% (inactive)
31 | Cc1c(O)ccc2c(CN3CCN(CCO)CC3)cc(=O)oc12 | -7.06% (inactive)
32 | CCCCN(C(=O)C1=CC=CN2CCS(=O)(=O)N=C12)c1ccccc1 | -2.89% (inactive)
33 | C[C@@H]1O[C@@H](O[C@@H]2C(=O)c3c(O)cc(O)cc3O[C@H]2c2ccc(O)c(O)c2)[C@H](O)[C@H](O)[C@H]1O | -7.93% (inactive)
34 | CC1CCCN(c2cc3c(cc2[N+](=O)[O-])C(=O)N(c2ccccc2)C3=O)C1 (stereo unspecified) | 0.75% (inactive)
35 | CCc1ccc(NC(=O)Nc2ccncc2)cc1 | -3.55% (inactive)
36 | Cc1ccc(C)c(NS(=O)(=O)c2c(C)nn(C)c2C)c1 | -1.82% (inactive)
37 | CN(C1=NC(=O)C(CC(=O)Nc2ccc(Br)cc2)S1)c1ccc(O)cc1 (stereo unspecified) | -8.95% (inactive)
38 | CC(=O)c1ccc(OCc2cc(C(=O)N3CCCCC3c3cccnc3)no2)cc1 (stereo unspecified) | -6.2% (inactive)
39 | NC1=NC[C@H](Cc2ccc(O)cc2)N1CC1CCCCC1 | -11.8% (inactive)
40 | CCCc1cc(=O)[nH]c(SCCOc2ccc(OCC)cc2)n1 | -5.03% (inactive)
41 | C[C@@H]1O[C@@H](O[C@H]2[C@H](O)[C@@H](O)[C@H](Oc3c(-c4ccc(O)cc4)oc4cc(O)cc(O)c4c3=O)O[C@@H]2CO)[C@H](O)[C@H](O)[C@H]1O | -3.49% (inactive)
42 | CC1(C)CC[C@]2(C(=O)O)CC[C@]3(C)C(=CC[C@@H]4[C@@]5(C)CC[C@H](O[C@@H]6O[C@H](C(=O)O)[C@@H](O)[C@H](O[C@@H]7OC[C@H](O)[C@H](O)[C@H]7O)[C@H]6O)C(C)(C)[C@@H]5CC[C@]43C)[C@@H]2C1 | -3.34% (inactive)

Row | Compound | activity change, negative = cytotoxicity
43 | CC(=O)NC1(c2nnnn2CCOC(=O)Nc2ccc(Cl)cc2)CCCCC1 | 5.78% (inactive)
44 | CC(C)N(C)C(=O)CCc1nnc(CCc2c[nH]c3ccccc23)o1 | -10.2% (inactive)
45 | S=C(NCCN1CCOCC1)Nc1ccc(Br)cc1 | -9.3% (inactive)
46 | O=C1NC(Cc2ccc(O)cc2)c2nc3ccccc3c(=O)n2-c2ncccc21 (stereo unspecified) | -7.17% (inactive)
47 | CCS(=O)(=O)c1ccc2oc(SCC(=O)NC(C)C3CC4CCC3C4)nc2c1 (stereo unspecified) | -13.9% (inactive)
48 | Cc1cc(NC(=O)CSc2[nH]c(=O)cc(C(F)(F)F)c2C#N)no1 | -3.53% (inactive)
49 | C[C@H]1CN([C@@H](C)CO)C(=O)c2cccc(NS(C)(=O)=O)c2O[C@@H]1CN(C)Cc1ccc(Oc2ccccc2)cc1 | -9.08% (inactive)
50 | CC(C)Cn1c(N)c(C(=O)COC(=O)c2ccc(O)cc2)c(=O)n(C)c1=O | -14.4% (inactive)
51 | CCOC(=O)c1ccc2c(c1)nc(SCC(=O)N1CCCCC1)n2CC | -10.4% (inactive)
52 | Cc1cc(NC(=O)COC(=O)C2CC(=O)N(c3ccccc3)C2)no1 (stereo unspecified) | -2.55% (inactive)
53 | O=C(C[C@H]1C[C@H](C(=O)N2CCCCC2)[C@@]2(CCc3ccccc3)c3[nH]c4cc(-c5ccco5)ccc4c3CCN2C1=O)NCCC1=CCCCC1 | -13% (inactive)
54 | Cc1cc(C)cc(OCC(=O)Nc2ccccc2C(=O)N2CCOCC2)c1 | -11.8% (inactive)
55 | C[C@H](CO)N1C[C@H](C)[C@H](CN(C)Cc2ccccc2)Oc2ccc(NC(=O)Nc3ccccc3)cc2CC1=O | -11.2% (inactive)
56 | Cn1nnnc1SCC(=O)Nc1cc(C(F)(F)F)ccc1N1CCOCC1 | -9.83% (inactive)
57 | CC(C)c1ccc(Nc2nc(CC(=O)O)cs2)cc1 | -4.01% (inactive)
58 | O=S(=O)(c1cc(F)ccc1F)N1CCN(c2ncccn2)CC1 | -15.2% (inactive)
59 | CCOC(=O)c1ccc(NC(=O)C2(c3ccc(Cl)cc3)CCCC2)cc1 | -21.1% (inactive)
60 | CCOc1ccc(NC(=O)CN(C)C(=O)c2cc(C)nc3ccccc23)cc1OCC | -13.4% (inactive)
61 | CCOC(C(=O)OCCCN(CC)CC)(c1ccccc1)c1ccccc1 | -17.8% (inactive)
62 | COc1ccc(CNC(=O)c2ccc(CS(=O)Cc3cccc(Cl)c3)o2)cc1 (stereo unspecified) | -9.18% (inactive)
63 | CCCCn1c(N)c(N(CC(C)C)C(=O)c2cc(-c3ccncc3)nc3ccccc23)c(=O)[nH]c1=O | -9.75% (inactive)

System: NIH3T3/HeLa viability, CellTiter-Glo ATP luminescence, 24 h
Test: as above
Conditions: not given

Row | Compound | AC50
64 | COc1ccc(C2c3ccc(O)cc3Oc3ncn4nc(-c5cccnc5)nc4c32)cc1OC (stereo unspecified) | 30.6 µM
65 | O=C1N[C@@H](Cc2c[nH]c3ccccc23)COC(=O)[C@@H](Cc2ccc(F)cc2)C/C=C\C[C@H]1CC(=O)N(CCO)Cc1ccccc1 | 30.2 µM
66 | CCN1C[C@]2(COC(=O)c3ccccc3N)CC[C@H](OC)C34[C@@H]5C[C@H]6[C@H](OC)[C@@H]5[C@](O)(C[C@@H]6OC)[C@@](O)([C@H]13)[C@@H](OC)[C@@H]42 | > 70 µM (inactive)
67 | COc1ccc(C[C@@H]2CN3C(=NC[C@@H]3Cc3ccc(O)cc3)N2C[C@H](C)NC(=O)CCC2CCCCC2)cc1 | 18.8 µM
68 | COc1ccc(C[C@@H]2OC3(C=CC(=O)C=C3)O[C@H]2Cc2ccc(OC)cc2)cc1 | 1.69 µM
69 | Cc1ccc(NC(=O)CSC(C)C(=O)OCc2cc(=O)oc3cc(O)ccc23)cc1 (stereo unspecified) | > 70 µM (inactive)
70 | CCc1cc(OCCCCNCc2ccccc2)ccc1Cl | 21.5 µM
71 | CC(=O)Oc1ccccc1C(=O)C=Cc1cccc([N+](=O)[O-])c1 | 5.89 µM
72 | O=C(CCc1nc(-c2ccccc2F)no1)Nc1ccc(Oc2ccccc2)cc1 | > 70 µM (inactive)
73 | Cc1ccc2c(c1)Oc1ccc(NC(=O)CCl)cc1C(=O)N2 | 8.51 µM
74 | C[C@]12CC[C@H]3C(=CCc4cc(O)ccc43)[C@@H]1CCC2=O | > 70 µM (inactive)
75 | CC[C@]12c3[nH]c4cc(-c5ccco5)ccc4c3CCN1C(=O)[C@@H](CC(=O)NCC13CC4CC(CC(C4)C1)C3)C[C@@H]2C(=O)N1CCN(C(=O)c2ccco2)CC1 | > 70 µM (inactive)
76 | Cc1ccc(S(=O)(=O)N(C)c2ccc(OC(=O)COc3ccccc3)cc2)cc1 | > 70 µM (inactive)
